Laboratory results reported in ChEMBL document CHEMBL3397011, “A novel molecule with notable activity against multi-drug resistant tuberculosis” (Bioorg Med Chem Lett, 2015).

What was measured:
[1] = biological target: T1, UDP-glucuronosyltransferase 1A4 (Homo sapiens, UniProt P22310); experiment: Drug metabolism assessed as UGT1A4-mediated compound glucuronidation in pooled mixed-gender human liver microsomes at 50 uM preincubated at 37 degC for 3 mins before UDPGA addition by HPLC method; assay type: ADME
T1 sequence (P22310 whole entry): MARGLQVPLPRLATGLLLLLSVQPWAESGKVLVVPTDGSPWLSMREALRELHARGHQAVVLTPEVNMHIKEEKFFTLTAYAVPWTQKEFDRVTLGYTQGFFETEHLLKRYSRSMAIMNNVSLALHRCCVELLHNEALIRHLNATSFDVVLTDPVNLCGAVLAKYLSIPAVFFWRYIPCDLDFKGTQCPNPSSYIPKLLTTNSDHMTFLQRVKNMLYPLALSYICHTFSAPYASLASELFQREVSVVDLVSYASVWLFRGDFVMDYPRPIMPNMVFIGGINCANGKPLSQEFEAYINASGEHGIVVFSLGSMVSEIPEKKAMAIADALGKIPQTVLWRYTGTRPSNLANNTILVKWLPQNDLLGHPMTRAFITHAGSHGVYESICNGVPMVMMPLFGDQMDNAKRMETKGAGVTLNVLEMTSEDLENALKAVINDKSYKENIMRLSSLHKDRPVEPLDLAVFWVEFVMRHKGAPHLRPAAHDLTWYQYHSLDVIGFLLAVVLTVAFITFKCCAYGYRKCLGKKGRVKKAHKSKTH

Cytochrome P450 3A4 [2] = biological target: T2, Cytochrome P450 3A4 (Homo sapiens, UniProt P08684); experiment: Activation of CYP3A4 in pooled mixed-gender human liver microsomes using testosterone substrate in presence of NADPH pre-incubated for 3 mins by HPLC-UV detection method; assay type: ADME
T2 sequence (P08684 whole entry): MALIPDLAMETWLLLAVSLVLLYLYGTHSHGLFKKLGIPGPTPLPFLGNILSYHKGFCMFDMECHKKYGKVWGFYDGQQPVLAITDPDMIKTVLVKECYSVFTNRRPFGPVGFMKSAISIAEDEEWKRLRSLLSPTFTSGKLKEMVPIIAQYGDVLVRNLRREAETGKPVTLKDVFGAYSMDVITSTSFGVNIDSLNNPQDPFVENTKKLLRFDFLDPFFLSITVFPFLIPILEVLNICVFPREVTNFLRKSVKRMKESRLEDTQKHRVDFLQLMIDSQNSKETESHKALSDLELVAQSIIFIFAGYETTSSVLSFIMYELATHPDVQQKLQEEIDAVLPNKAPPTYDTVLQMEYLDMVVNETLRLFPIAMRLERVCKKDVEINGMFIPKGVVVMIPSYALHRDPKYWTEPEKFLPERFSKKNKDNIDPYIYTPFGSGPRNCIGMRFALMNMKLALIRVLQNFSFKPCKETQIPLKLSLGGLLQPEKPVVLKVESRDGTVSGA

[3] = test system: Human immunodeficiency virus 1; experiment: Antiviral activity against HIV1 infected in human MAGI-R5 cells; assay type: functional, organism-based; conditions: Human immunodeficiency virus 1, MAGI-R5
[4] = biological target: T3, UDP-glucuronosyltransferase 1A9 (Homo sapiens, UniProt O60656); experiment: Activation of UGT1A9 in pooled mixed-gender human liver microsomes at 50 uM preincubated at 37 degC for 3 mins before UDPGA addition by HPLC method; assay type: ADME
T3 sequence (O60656 whole entry): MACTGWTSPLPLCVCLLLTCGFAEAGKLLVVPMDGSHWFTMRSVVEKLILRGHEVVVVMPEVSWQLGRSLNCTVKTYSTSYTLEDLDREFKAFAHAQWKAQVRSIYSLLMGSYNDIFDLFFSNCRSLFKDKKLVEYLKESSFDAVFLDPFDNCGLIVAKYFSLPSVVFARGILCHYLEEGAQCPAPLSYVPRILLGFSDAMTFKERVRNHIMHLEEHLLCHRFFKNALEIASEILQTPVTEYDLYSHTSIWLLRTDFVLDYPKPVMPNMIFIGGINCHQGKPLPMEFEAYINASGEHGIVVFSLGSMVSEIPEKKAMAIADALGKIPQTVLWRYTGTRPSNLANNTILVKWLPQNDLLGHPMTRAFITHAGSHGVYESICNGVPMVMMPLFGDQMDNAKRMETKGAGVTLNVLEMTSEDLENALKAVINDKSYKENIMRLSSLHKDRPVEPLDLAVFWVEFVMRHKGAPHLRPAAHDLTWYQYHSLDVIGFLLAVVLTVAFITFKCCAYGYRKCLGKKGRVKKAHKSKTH

Liver microsome = experiment: Half life in pooled mixed-gender human liver microsomes at 50 uM in presence of NADPH pre-incubated for 3 mins before NADPH addition followed by incubation for 60 mins by reversed-phase HPLC method; assay type: ADME; conditions: 1 h
[5] = biological target: T1, UDP-glucuronosyltransferase 1A4; experiment: Inhibition of UGT1A4 in pooled mixed-gender human liver microsomes using 4-methylumbelliferone substrate by HPLC method; assay type: ADME
Cytochrome P450 3A4 [6] = biological target: T2, Cytochrome P450 3A4; experiment: Activation of CYP3A4 in pooled mixed-gender human liver microsomes using triazolam substrate in presence of NADPH pre-incubated for 3 mins by HPLC-UV detection method; assay type: ADME
[7] = biological target: T3, UDP-glucuronosyltransferase 1A9; experiment: Inhibition of UGT1A9 in pooled mixed-gender human liver microsomes using 4-methylumbelliferone substrate by HPLC method; assay type: ADME
[8] = biological target: T3, UDP-glucuronosyltransferase 1A9; experiment: Drug metabolism assessed as UGT1A9-mediated compound glucuronidation in pooled mixed-gender human liver microsomes at 50 uM preincubated at 37 degC for 3 mins before UDPGA addition by HPLC method; assay type: ADME
Cytochrome P450 2D6 [9] = biological target: T4, Cytochrome P450 2D6 (Homo sapiens, UniProt P10635); experiment: Inhibition of […] in pooled mixed-gender human liver microsomes using dextromethorphan substrate in presence of NADPH pre-incubated for 3 mins by HPLC-UV detection method; assay type: ADME
T4 sequence (P10635 whole entry): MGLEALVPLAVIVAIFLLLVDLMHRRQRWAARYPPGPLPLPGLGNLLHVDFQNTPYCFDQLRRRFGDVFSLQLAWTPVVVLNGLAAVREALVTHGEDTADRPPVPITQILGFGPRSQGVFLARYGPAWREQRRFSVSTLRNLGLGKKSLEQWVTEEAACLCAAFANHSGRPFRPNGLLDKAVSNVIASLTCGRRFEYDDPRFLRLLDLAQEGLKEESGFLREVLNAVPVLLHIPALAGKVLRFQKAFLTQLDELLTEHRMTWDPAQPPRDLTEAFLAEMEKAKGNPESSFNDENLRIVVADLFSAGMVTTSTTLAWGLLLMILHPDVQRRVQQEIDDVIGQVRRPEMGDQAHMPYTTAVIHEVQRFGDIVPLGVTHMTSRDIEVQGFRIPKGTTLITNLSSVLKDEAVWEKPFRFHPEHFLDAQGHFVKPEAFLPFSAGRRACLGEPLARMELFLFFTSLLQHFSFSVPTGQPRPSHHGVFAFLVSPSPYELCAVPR

Cytochrome P450 2D6 [10] = biological target: T4, Cytochrome P450 2D6; experiment: Activation of […] in pooled mixed-gender human liver microsomes using dextromethorphan substrate in presence of NADPH pre-incubated for 3 mins by HPLC-UV detection method; assay type: ADME
[11] = biological target: T5, UDP-glucuronosyltransferase 1A6 (Homo sapiens, UniProt P19224); experiment: Activation of UGT1A6 in pooled mixed-gender human liver microsomes at 50 uM preincubated at 37 degC for 3 mins before UDPGA addition by HPLC method; assay type: ADME
T5 sequence (P19224 whole entry): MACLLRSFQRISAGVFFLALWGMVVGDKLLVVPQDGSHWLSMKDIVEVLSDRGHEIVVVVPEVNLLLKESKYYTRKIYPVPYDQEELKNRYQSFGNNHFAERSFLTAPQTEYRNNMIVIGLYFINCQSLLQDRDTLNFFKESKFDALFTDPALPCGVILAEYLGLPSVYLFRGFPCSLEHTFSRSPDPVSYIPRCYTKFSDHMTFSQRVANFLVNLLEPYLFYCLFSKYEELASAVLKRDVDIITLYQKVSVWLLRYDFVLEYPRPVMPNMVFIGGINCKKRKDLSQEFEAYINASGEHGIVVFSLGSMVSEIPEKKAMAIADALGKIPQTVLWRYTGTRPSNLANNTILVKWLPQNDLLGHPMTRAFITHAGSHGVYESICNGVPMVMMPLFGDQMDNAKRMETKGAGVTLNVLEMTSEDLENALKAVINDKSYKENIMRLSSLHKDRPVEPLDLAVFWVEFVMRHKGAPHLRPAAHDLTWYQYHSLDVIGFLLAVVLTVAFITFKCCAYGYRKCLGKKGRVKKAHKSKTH

Cytochrome P450 3A4 [12] = biological target: T2, Cytochrome P450 3A4; experiment: Inhibition of CYP3A4 in pooled mixed-gender human liver microsomes at <25 uM using testosterone substrate in presence of NADPH pre-incubated for 3 mins by HPLC-UV detection method; assay type: ADME
Cytochrome P450 3A4 [13] = biological target: T2, Cytochrome P450 3A4; experiment: Inhibition of CYP3A4 in pooled mixed-gender human liver microsomes using triazolam substrate in presence of NADPH pre-incubated for 3 mins by HPLC-UV detection method; assay type: ADME
[14] = biological target: T5, UDP-glucuronosyltransferase 1A6; experiment: Drug metabolism assessed as UGT1A6-mediated compound glucuronidation in pooled mixed-gender human liver microsomes at 50 uM preincubated at 37 degC for 3 mins before UDPGA addition by HPLC method; assay type: ADME
Cytochrome P450 2D6 [15] = biological target: T4, Cytochrome P450 2D6; experiment: Inhibition of […] in pooled mixed-gender human liver microsomes at <25 uM using dextromethorphan substrate in presence of NADPH pre-incubated for 3 mins by HPLC-UV detection method; assay type: ADME
[16] = Dissociation constant, pKa of the compound; assay type: physicochemical
[17] = biological target: T5, UDP-glucuronosyltransferase 1A6; experiment: Inhibition of UGT1A6 in pooled mixed-gender human liver microsomes using 4-methylumbelliferone substrate by HPLC method; assay type: ADME
[18] = biological target: T6, UDP-glucuronosyltransferase 1A1 (Homo sapiens, UniProt P22309); experiment: Inhibition of UGT1A1 in pooled mixed-gender human liver microsomes using 4-methylumbelliferone substrate by HPLC method; assay type: ADME
T6 sequence (P22309 whole entry): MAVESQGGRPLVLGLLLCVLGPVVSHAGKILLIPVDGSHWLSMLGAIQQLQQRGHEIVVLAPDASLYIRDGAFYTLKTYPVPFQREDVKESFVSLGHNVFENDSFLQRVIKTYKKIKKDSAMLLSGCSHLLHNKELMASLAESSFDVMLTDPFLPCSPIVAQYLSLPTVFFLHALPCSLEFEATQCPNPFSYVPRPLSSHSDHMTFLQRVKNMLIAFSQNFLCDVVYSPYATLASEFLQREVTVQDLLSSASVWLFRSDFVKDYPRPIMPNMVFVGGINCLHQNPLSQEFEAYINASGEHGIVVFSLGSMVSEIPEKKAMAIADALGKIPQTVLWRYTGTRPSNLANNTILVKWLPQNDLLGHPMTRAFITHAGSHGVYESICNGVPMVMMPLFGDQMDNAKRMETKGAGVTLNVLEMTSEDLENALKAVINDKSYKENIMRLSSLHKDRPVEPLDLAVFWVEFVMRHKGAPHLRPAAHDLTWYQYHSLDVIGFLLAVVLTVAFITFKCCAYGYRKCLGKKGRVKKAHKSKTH

[19] = Toxicity against macrophages (unknown origin) assessed cell viability at 4 times MIC level after 7 days by MTT assay; assay type: cell-based, Macrophage; conditions: read-out: Activity
[20] = biological target: T6, UDP-glucuronosyltransferase 1A1; experiment: Activation of UGT1A1 in pooled mixed-gender human liver microsomes at 50 uM preincubated at 37 degC for 3 mins before UDPGA addition by HPLC method; assay type: ADME
[21] = biological target: T1, UDP-glucuronosyltransferase 1A4; experiment: Activation of UGT1A4 in pooled mixed-gender human liver microsomes at 100 uM preincubated at 37 degC for 3 mins before UDPGA addition by HPLC method; assay type: ADME
[22] = biological target: T1, UDP-glucuronosyltransferase 1A4; experiment: Activation of UGT1A4 in pooled mixed-gender human liver microsomes at 50 uM preincubated at 37 degC for 3 mins before UDPGA addition by HPLC method; assay type: ADME
[23] = biological target: T7, UDP-glucuronosyltransferase 2B7 (Homo sapiens, UniProt P16662); experiment: Activation of UGT2B7 in pooled mixed-gender human liver microsomes at 50 uM preincubated at 37 degC for 3 mins before UDPGA addition by HPLC method; assay type: ADME
T7 sequence (P16662 whole entry): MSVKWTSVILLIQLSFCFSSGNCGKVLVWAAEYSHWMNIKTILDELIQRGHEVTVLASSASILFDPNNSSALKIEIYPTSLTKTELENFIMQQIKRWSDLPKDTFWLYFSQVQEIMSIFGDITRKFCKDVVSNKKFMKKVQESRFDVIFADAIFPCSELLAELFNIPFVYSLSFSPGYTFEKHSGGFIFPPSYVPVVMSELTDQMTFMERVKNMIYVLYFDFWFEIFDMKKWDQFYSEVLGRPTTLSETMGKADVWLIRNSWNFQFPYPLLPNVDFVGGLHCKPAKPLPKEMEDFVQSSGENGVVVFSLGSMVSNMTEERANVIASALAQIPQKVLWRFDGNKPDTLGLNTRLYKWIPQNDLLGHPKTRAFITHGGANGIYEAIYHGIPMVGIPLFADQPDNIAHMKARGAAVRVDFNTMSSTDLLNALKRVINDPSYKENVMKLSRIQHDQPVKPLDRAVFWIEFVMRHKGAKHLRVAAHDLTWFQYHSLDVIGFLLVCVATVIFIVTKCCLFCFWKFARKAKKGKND

[24] = biological target: T6, UDP-glucuronosyltransferase 1A1; experiment: Drug metabolism assessed as UGT1A1-mediated compound glucuronidation in pooled mixed-gender human liver microsomes at 50 uM preincubated at 37 degC for 3 mins before UDPGA addition by HPLC method; assay type: ADME
Cytochrome P450 3A4 [25] = biological target: T2, Cytochrome P450 3A4; experiment: Inhibition of CYP3A4 in pooled mixed-gender human liver microsomes at <25 uM using triazolam substrate in presence of NADPH pre-incubated for 3 mins by HPLC-UV detection method; assay type: ADME
Cytochrome P450 3A4 [26] = biological target: T2, Cytochrome P450 3A4; experiment: Inhibition of CYP3A4 in pooled mixed-gender human liver microsomes using testosterone substrate in presence of NADPH pre-incubated for 3 mins by HPLC-UV detection method; assay type: ADME
[27] = biological target: T7, UDP-glucuronosyltransferase 2B7; experiment: Inhibition of […] in pooled mixed-gender human liver microsomes using 4-methylumbelliferone substrate by HPLC method; assay type: ADME
[28] = biological target: T7, UDP-glucuronosyltransferase 2B7; experiment: Drug metabolism assessed as UGT2B7-mediated compound glucuronidation in pooled mixed-gender human liver microsomes at 50 uM preincubated at 37 degC for 3 mins before UDPGA addition by HPLC method; assay type: ADME

O=C(/C=C(\O)C(=O)N1CCN(c2ccc(-n3cccc3)cc2)CC1)c1cc(Cc2cc(F)cc(F)c2)cn(Cc2ccccc2F)c1=O
Drug metabolism [1]: metabolite_notdetected | Activity (Cytochrome P450 3A4 [2]): Not Active | IC50 [3]: 0.05 µM | Activity [4]: Not Active | t1/2 (Liver microsome): 14.4 h | IC50 [5]: Not Active | Activity (Cytochrome P450 3A4 [6]): Not Active | IC50 [7]: > 300 µM | Drug metabolism [8]: metabolite_notdetected | IC50 (Cytochrome P450 2D6 [9]): > 185 µM | Activity (Cytochrome P450 2D6 [10]): Not Active | Activity [11]: Not Active | inhibition (INH) (Cytochrome P450 3A4 [12]): Not Active | IC50 (Cytochrome P450 3A4 [13]): > 85 µM | Drug metabolism [14]: metabolite_notdetected | inhibition (INH) (Cytochrome P450 2D6 [15]): Not Active | pKa [16]: 9 | IC50 [17]: > 300 µM | IC50 [18]: > 300 µM | viability at 168 h, 4 times MIC [19]: > 85% | Activity [20]: Not Active | Activity [21]: Active | Activity [22]: Not Active | Activity [23]: Not Active | Drug metabolism [24]: metabolite_notdetected | inhibition (INH) (Cytochrome P450 3A4 [25]): Not Active | IC50 (Cytochrome P450 3A4 [26]): > 50 µM | IC50 [27]: > 300 µM | Drug metabolism [28]: metabolite_notdetected

Cc1nnc(C(=O)NC(C)(C)c2nc(C(=O)NCc3ccc(F)cc3)c(O)c(=O)n2C)o1 [RALTEGRAVIR]
Drug metabolism [1]: metabolite_detected | Drug metabolism [8]: metabolite_detected | Drug metabolism [14]: metabolite_detected | Drug metabolism [24]: metabolite_detected | Drug metabolism [28]: metabolite_detected

[H]/N=C(/N)N[C@H]1[C@H](O)[C@@H](O)[C@H](O[C@@H]2O[C@@H](C)[C@](O)(C=O)[C@H]2O[C@@H]2O[C@@H](CO)[C@H](O)[C@@H](O)[C@@H]2NC)[C@@H](N/C(N)=N\[H])[C@@H]1O [STREPTOMYCIN]
viability at 168 h, 4 times MIC [19]: 90%
